These results are taken from patent US20090131416A1, “SUBSTITUTED PYRAZINYL AMIDE COMPOUNDS AS MODULATORS OF THE HISTAMINE H3 RECEPTOR” (priority 2007, published 2009).

The term Ki denotes a dissociation constant, usually derived from enzyme kinetics or from competition with a known ligand.

T1 sequence (Q9QYN8 whole entry): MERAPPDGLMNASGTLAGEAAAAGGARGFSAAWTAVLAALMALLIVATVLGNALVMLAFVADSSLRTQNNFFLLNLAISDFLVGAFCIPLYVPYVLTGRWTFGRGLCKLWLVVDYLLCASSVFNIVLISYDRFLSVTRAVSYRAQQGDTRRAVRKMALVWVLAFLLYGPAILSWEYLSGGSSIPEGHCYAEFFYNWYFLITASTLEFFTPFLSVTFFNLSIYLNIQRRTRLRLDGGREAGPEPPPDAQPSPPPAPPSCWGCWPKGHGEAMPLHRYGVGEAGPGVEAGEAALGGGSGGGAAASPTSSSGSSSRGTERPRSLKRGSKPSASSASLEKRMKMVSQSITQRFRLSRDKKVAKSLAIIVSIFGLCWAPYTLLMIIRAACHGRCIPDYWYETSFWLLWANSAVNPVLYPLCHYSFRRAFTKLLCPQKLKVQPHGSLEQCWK

One test addresses T1, rat H3 receptor (Rattus norvegicus, UniProt Q9QYN8).
T1 construct: expressed in transfected cells; host or cells: SK-N-MC cell sublines
As to the kind of experiment: Cyclic AMP Accumulation (rat H3). The class given is cell-based. As to conditions: SK-N-MC cells expressing reporter construct and rat H3 receptor; read-out: Rat pA2 (converted). An excerpt:
(§1) Sublines of SK-N-MC cells were created that expressed a reporter construct and either the human or rat H3 receptor. The pA2 values were obtained as described by Barbier et al. (2004).
Take `O=C(c1cnc(Oc2cccc(F)c2)cn1)N1CCCN(C2CCC2)CC1` [Example 4, (4-Cyclobutyl-[1,4]diazepan-1-yl)-[5-(3-fluoro-phenoxy)-pyrazin-2-yl]-methanone]: the Kb is 6.92 nM.

On to `O=C(c1cnc(OC2CCCCC2)cn1)N1CCCN(C2CCC2)CC1` [Example 11, (4-Cyclobutyl-[1,4]diazepan-1-yl)-(5-cyclohexyloxy-pyrazin-2-yl)-methanone], for which the Kb was 9.55 nM.

Regarding `O=C(c1cnc(Oc2ccc(F)cc2)cn1)N1CCCN(C2CCC2)CC1` [Example 1, (4-Cyclobutyl-[1,4]diazepan-1-yl)-[5-(4-fluoro-phenoxy)-pyrazin-2-yl]-methanone], the Kb was 13.5 nM.

Consider `O=C(c1cnc(Oc2ccc(Cl)cc2)cn1)N1CCCN(C2CCC2)CC1` [Example 3, [5-(4-Chloro-phenoxy)-pyrazin-2-yl]-(4-cyclobutyl-[1,4]diazepan-1-yl)-methanone], for which the Kb is 12.6 nM.

The next test deals with T2, rat H3 receptor (rat brain membranes) (Rattus norvegicus, UniProt Q9QYN8).
T2 construct: A rat brain without cerebellum (Zivic Laboratories Inc., Pittsburgh, Pa.) was homogenized; tissue Zivic Laboratories Inc; host or cells: rat brain without cerebellum, membranes
T2 sequence (Q9QYN8 whole entry): as above
As to the kind of experiment: H3 Receptor Binding (Rat). Conditions: rat brain membranes without cerebellum; 0.8 nM N-[3H]-α-methylhistamine; 60 min at 25° C. The method, then: A rat brain without cerebellum (Zivic Laboratories Inc., Pittsburgh, Pa.) was homogenized in 50 mM Tris-HCl/5 mM EDTA and centrifuged at 1,000 rpm for 5 min. The supernatant was removed and recentrifuged at 15,000 rpm for 30 min. Pellets were rehomogenized in 50 mM Tris/5 mM EDTA (pH 7.4). Membranes were incubated with 0.8 nM N-[^3H]-α-methylhistamine plus/minus test compounds for 60 min at 25° C. and harvested by rapid filtration over GF/C glass fiber filters (pretreated with 0.3% polyethylenimine) followed by four washes with buffer. Nonspecific binding was defined in the presence of 100 μM histamine. Inhibitory concentration (responsible for 50% inhibition of maximal effect, IC50) values were determined by a single site curve-fitting program (GraphPad, San Diego, Calif.) and converted to Ki values based on a N-[^3H]-α-methylhistamine dissociation constant (Kd) of 0.8 nM. The following results were obtained: Example 2, 34 nM; Example 3, 33 nM; Example 4,18 nM; Example 5, 9.2 nM.
In the case of `O=C(c1cnc(Oc2ccccc2)cn1)N1CCCN(C2CCC2)CC1` [Example 2, (4-Cyclobutyl-[1,4]diazepan-1-yl)-(5-phenoxy-pyrazin-2-yl)-methanone], the Ki is 34 nM.

Take `N#Cc1cccc(Oc2cnc(C(=O)N3CCCN(C4CCC4)CC3)cn2)c1` [Example 5, 3-[5-(4-Cyclobutyl-[1,4]diazepane-1-carbonyl)-pyrazin-2-yloxy]-benzonitrile]: the affinity, expressed as Ki, was 9.2 nM.

For `O=C(c1cnc(Oc2cccc(F)c2)cn1)N1CCCN(C2CCC2)CC1` [Example 4, (4-Cyclobutyl-[1,4]diazepan-1-yl)-[5-(3-fluoro-phenoxy)-pyrazin-2-yl]-methanone], the affinity corresponds to a Ki of 18 nM.

Take `O=C(c1cnc(Oc2ccc(Cl)cc2)cn1)N1CCCN(C2CCC2)CC1` [Example 3, [5-(4-Chloro-phenoxy)-pyrazin-2-yl]-(4-cyclobutyl-[1,4]diazepan-1-yl)-methanone]: the affinity, expressed as Ki, was 33 nM.

The target in the next test is T3, human H3 receptor (Homo sapiens, UniProt Q9Y5N1).
T3 construct: expressed in transfected cells; host or cells: SK-N-MC cell sublines
T3 sequence (Q9Y5N1 whole entry): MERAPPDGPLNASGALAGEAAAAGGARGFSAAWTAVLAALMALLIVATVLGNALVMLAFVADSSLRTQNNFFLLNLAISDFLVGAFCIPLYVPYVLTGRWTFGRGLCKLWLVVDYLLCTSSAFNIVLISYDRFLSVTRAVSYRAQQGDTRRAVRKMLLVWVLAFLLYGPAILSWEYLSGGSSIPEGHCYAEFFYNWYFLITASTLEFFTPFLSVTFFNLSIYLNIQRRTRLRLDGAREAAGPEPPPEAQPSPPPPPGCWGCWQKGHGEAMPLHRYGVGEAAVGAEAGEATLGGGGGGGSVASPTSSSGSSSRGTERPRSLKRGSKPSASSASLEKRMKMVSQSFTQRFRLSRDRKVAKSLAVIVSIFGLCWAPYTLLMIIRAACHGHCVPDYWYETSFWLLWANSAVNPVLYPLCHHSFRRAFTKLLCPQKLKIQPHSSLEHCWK
As to the kind of experiment: Cyclic AMP Accumulation (human H3). Format: cell-based. Conditions: SK-N-MC cells expressing reporter construct and human H3 receptor; read-out: Human pA2 (converted).
Text: as §1
As for `O=C(c1cnc(Oc2cccc(F)c2)cn1)N1CCCN(C2CCC2)CC1` [Example 4, (4-Cyclobutyl-[1,4]diazepan-1-yl)-[5-(3-fluoro-phenoxy)-pyrazin-2-yl]-methanone], the Kb is 0.537 nM.

For `O=C(c1cnc(OC2CCCCC2)cn1)N1CCCN(C2CCC2)CC1` [Example 11, (4-Cyclobutyl-[1,4]diazepan-1-yl)-(5-cyclohexyloxy-pyrazin-2-yl)-methanone], the Kb was 0.525 nM.

Turning to `O=C(c1cnc(Oc2ccc(F)cc2)cn1)N1CCCN(C2CCC2)CC1` [Example 1, (4-Cyclobutyl-[1,4]diazepan-1-yl)-[5-(4-fluoro-phenoxy)-pyrazin-2-yl]-methanone], the Kb was 0.871 nM.

Take `O=C(c1cnc(Oc2ccc(Cl)cc2)cn1)N1CCCN(C2CCC2)CC1` [Example 3, [5-(4-Chloro-phenoxy)-pyrazin-2-yl]-(4-cyclobutyl-[1,4]diazepan-1-yl)-methanone]: the Kb was 1.2 nM.

A further test deals with T4, cloned human H3 receptors (Homo sapiens, UniProt Q9Y5N1).
T4 construct: expressed in transfected cells; host or cells: SK-N-MC cells
T4 sequence (Q9Y5N1 whole entry): as above
Description: H3 Receptor Binding (Human). As to conditions: cloned human H3 receptors stably expressed in SK-N-MC cells; average of results. As for the experimental part:
Binding of compounds to the cloned human H3 receptors, stably expressed in SK-N-MC cells, was performed as described by Barbier, A. J. et al. (Br. J. Pharmacol. 2004, 143(5), 649-661). Data for compounds tested in this assay are presented in Table 1, as an average of results obtained.
Compound `O=C(c1cnc(Oc2ccccc2)cn1)N1CCCN(C2CCC2)CC1` [Example 2, (4-Cyclobutyl-[1,4]diazepan-1-yl)-(5-phenoxy-pyrazin-2-yl)-methanone] showed a Ki of 2.9 nM.

`N#Cc1cccc(Oc2cnc(C(=O)N3CCCN(C4CCC4)CC3)cn2)c1` [Example 5, 3-[5-(4-Cyclobutyl-[1,4]diazepane-1-carbonyl)-pyrazin-2-yloxy]-benzonitrile]: the affinity corresponds to a Ki of 1.5 nM.

Compound `O=C(c1cnc(Oc2ccccc2)cn1)N1CCN(C2CCC2)CC1` [Example 7, (4-Cyclobutyl-piperazin-1-yl)-(5-phenoxy-pyrazin-2-yl)-methanone] registered a Ki of 36 nM.

Compound `N#Cc1cccc(Oc2cnc(C(=O)N3CCN(C4CCC4)CC3)cn2)c1` [Example 10, 3-[5-(4-Cyclobutyl-piperazine-1-carbonyl)-pyrazin-2-yloxy]-benzonitrile] gave a Ki of 28 nM.

`O=C(c1cnc(Oc2cccc(F)c2)cn1)N1CCCN(C2CCC2)CC1` [Example 4, (4-Cyclobutyl-[1,4]diazepan-1-yl)-[5-(3-fluoro-phenoxy)-pyrazin-2-yl]-methanone] had a Ki of 2.6 nM. This Ki is about 11-fold lower than that of the compound before.

Turning to `O=C(c1cnc(Oc2ccc(Cl)cc2)cn1)N1CCN(C2CCC2)CC1` [Example 8, [5-(4-Chloro-phenoxy)-pyrazin-2-yl]-(4-cyclobutyl-piperazin-1-yl)-methanone], the affinity corresponds to a Ki of 38 nM.

As to `O=C(c1cnc(OC2CCCCC2)cn1)N1CCCN(C2CCC2)CC1` [Example 11, (4-Cyclobutyl-[1,4]diazepan-1-yl)-(5-cyclohexyloxy-pyrazin-2-yl)-methanone], the affinity, expressed as Ki, was 3.2 nM.

With `O=C(c1cnc(OC2CCCCC2)cn1)N1CCN(C2CCC2)CC1` [Example 12, (4-Cyclobutyl-piperazin-1-yl)-(5-cyclohexyloxy-pyrazin-2-yl)-methanone], the affinity, expressed as Ki, was 51 nM. Against the preceding compound, the Ki is about 16-fold higher.

`O=C(c1cnc(Oc2ccc(F)cc2)cn1)N1CCCN(C2CCC2)CC1` [Example 1, (4-Cyclobutyl-[1,4]diazepan-1-yl)-[5-(4-fluoro-phenoxy)-pyrazin-2-yl]-methanone] showed a Ki of 2.4 nM.

In turn, `O=C(c1cnc(Oc2cccc(F)c2)cn1)N1CCN(C2CCC2)CC1` [Example 9, (4-Cyclobutyl-piperazin-1-yl)-[5-(3-fluoro-phenoxy)-pyrazin-2-yl]-methanone] gave a Ki of 37 nM.

As to `O=C(c1cnc(Oc2ccc(Cl)cc2)cn1)N1CCCN(C2CCC2)CC1` [Example 3, [5-(4-Chloro-phenoxy)-pyrazin-2-yl]-(4-cyclobutyl-[1,4]diazepan-1-yl)-methanone], the Ki amounted to 3.7 nM.

`O=C(c1cnc(Oc2ccc(F)cc2)cn1)N1CCN(C2CCC2)CC1` [Example 6, (4-Cyclobutyl-piperazin-1-yl)-[5-(4-fluoro-phenoxy)-pyrazin-2-yl]-methanone] registered a Ki of 19 nM.
